row,melting point,Structure (SMILES)
1,142 to 142.5 °C,"COc1ccc(Cn2c(=O)n([C@H]3CC[C@H](O)CC3)c3ccc([N+](=O)[O-])cc32)cc1Cl [Example 2(16), 3-(3-Chloro-4-methoxybenzyl)-1-(trans-4-hydroxycyclohexyl)-5-nitro-2,3-dihydro-1H-benzimidazol-2-one]"
2,175 to 176 °C,"COc1ccc(Cn2c(=O)n(C3CCOCC3)c3ccc(C(F)(F)F)cc32)cc1Cl [Example 2(34), 3-(3-Chloro-4-methoxybenzyl)-1-(tetrahydro-4H-pyran-4-yl)-5-trifluoromethyl-2,3-dihydro-1H-benzimidazol-2-one]"
3,108 to 110 °C,"COc1ccc(Cn2c(=O)n([C@H]3CC[C@H](O)CC3)c3ccc(C(F)(F)F)cc32)cc1OC [Example 1, 3-(3,4-dimethoxybenzyl)-1-(trans-4-hydroxycyclohexyl)-5-trifluoromethyl-2,3-dihydro-1H-benzimidazol-2-one]"
4,182 to 182.5 °C,"COc1ccc(Cn2c(=O)n([C@H]3CC[C@H](O)CC3)c3ccc(C(F)(F)F)cc32)cc1Br [Example 2(31), 3-(3-Bromo-4-methoxybenzyl)-1-(trans-4-hydroxycyclohexyl)-5-trifluoromethyl-2,3-dihydro-1H-benzimidazol-2-one]"
5,195 to 197 °C,"COc1ccc(Cn2c(=O)n(C(C)(C)CO)c3ncc(C(F)(F)F)cc32)cc1Cl [Example 3, 1-(3-chloro-4-methoxybenzyl)-3-(1,1-dimethyl-2-hydroxyethyl)-6-trifluoromethyl-2,3-dihydro-1H-imidazo[4,5-b]pyridin-2-one]"
6,114 to 116 °C,"COc1ccc(Cn2c(=O)n([C@H]3CC[C@H](O)CC3)c3ncc(C#N)cc32)cc1Br [Example 2(100), 1-(3-Bromo-4-methoxybenzyl)-6-cyano-3-(trans-4-hydroxycyclohexyl)-2,3-dihydro-1H-imidazo[4,5-b]pyridin-2-one]"
7,108 to 109 °C,"COc1ccc(Cn2c(=O)n([C@H](C)CO)c3ccc(C(F)(F)F)cc32)cc1Cl [Example 4(4), 3-(3-Chloro-4-methoxybenzyl)-1-((R)-2-hydroxy-1-methylethyl)-5-trifluoromethyl-2,3-dihydro-1H-benzimidazol-2-one]"
8,178 to 179 °C,"COc1ccc(Cn2c(=O)n([C@H]3CC[C@H](O)CC3)c3ccc(C(F)(F)F)cc32)cc1F [Example 2(30), 3-(3-Fluoro-4-methoxybenzyl)-1-(trans-4-hydroxycyclohexyl)-5-trifluoromethyl-2,3-dihydro-1H-benzimidazol-2-one]"
9,133 to 134 °C,"COc1ccc(Cn2c(=O)n([C@H]3CC[C@H](O)CC3)c3ncc(C#N)cc32)cc1C#N [Example 2(102), 6-Cyano-1-(3-cyano-4-methoxybenzyl)-3-(trans-4-hydroxycyclohexyl)-2,3-dihydro-1H-imidazo[4,5-b]pyridin-2-one]"
10,167 to 168.5 °C,"COc1ccc(Cn2c(=O)n([C@H]3CC[C@H](N)CC3)c3ccc(C(F)(F)F)cc32)cc1Cl [Example 8(4), 1-(trans-4-Aminocyclohexyl)-3-(3-chloro-4-methoxybenzyl)-5-trifluoromethyl-2,3-dihydro-1H-benzimidazol-2-one]"
11,166 to 167 °C,"COc1ccc(Cn2c(=O)n([C@H]3CC[C@H](O)CC3)c3ccc(Cl)cc32)cc1OC [Example 2(9), 5-Chloro-3-(3,4-dimethoxybenzyl)-1-(trans-4-hydroxycyclohexyl)-2,3-dihydro-1H-benzimidazol-2-one]"
12,158 to 160.5 °C,"COc1ccc(Cn2c(=O)n([C@H]3CC[C@H](NC=O)CC3)c3ccc(C(F)(F)F)cc32)cc1OC [Example 2(8), 3-(3,4-Dimethoxybenzyl)-1-(trans-4-formamidocyclohexyl)-5-trifluoromethyl-2,3-dihydro-1H-benzimidazol-2-one]"
13,147.5 to 149 °C,"CCOc1ccc(Cn2c(=O)n([C@H]3CC[C@H](O)CC3)c3ccc(C(F)(F)F)cc32)cc1Cl [Example 2(29), 3-(3-Chloro-4-ethoxybenzyl)-1-(trans-4-hydroxycyclohexyl)-5-trifluoromethyl-2,3-dihydro-1H-benzimidazol-2-one]"
14,148 to 149.5 °C,"COC(=O)c1ccc2c(c1)n(Cc1ccc(OC)c(OC)c1)c(=O)n2[C@H]1CC[C@H](O)CC1 [Example 2(10), 3-(3,4-Dimethoxybenzyl)-1-(trans-4-hydroxycyclohexyl)-5-methoxycarbonyl-2,3-dihydro-1H-benzimidazol-2-one]"
15,156 to 157 °C,"COc1ccc(Cn2c(=O)n(C3CCCC3)c3ncc(C(F)(F)F)cc32)cc1Cl [Example 2(17), 1-(3-Chloro-4-methoxybenzyl)-3-cyclopentyl-6-trifluoromethyl-2,3-dihydro-1H-imidazo[4,5-b]pyridin-2-one]"
16,174 to 175 °C,"COC(=O)c1ccc2c(c1)n(Cc1ccc(OC)c(Cl)c1)c(=O)n2[C@H]1CC[C@H](O)CC1 [Example 2(27), 3-(3-Chloro-4-methoxybenzyl)-1-(trans-4-hydroxycyclohexyl)-5-methoxycarbonyl-2,3-dihydro-1H-benzimidazol-2-one]"
17,121 to 123 °C,"COc1ccc(Cn2c(=O)n([C@H]3CC[C@H](O)CC3)c3ncc(C(F)(F)F)cc32)cc1Cl [Example 19(2), 1-(3-Chloro-4-methoxybenzyl)-3-(trans-4-hydroxycyclohexyl)-6-trifluoromethyl-2,3-dihydro-1H-imidazo[4,5-b]pyridin-2-one]"
18,265 to 265.5 °C,"COc1ccc(Cn2c(=O)n([C@H]3CC[C@H](O)CC3)c3ccc(S(C)(=O)=O)cc32)cc1Cl [Example 4(3), 3-(3-Chloro-4-methoxybenzyl)-1-(trans-4-hydroxycyclohexyl)-5-methylsulfonyl-2,3-dihydro-1H-benzimidazol-2-one]"
19,169 to 170 °C,"COc1ccc(Cn2c(=O)n([C@H]3CC[C@H](O)CC3)c3ccc(C(C)=O)cc32)cc1OC [Example 2(7), 5-Acetyl-3-(3,4-dimethoxybenzyl)-1-(trans-4-hydroxycyclohexyl)-2,3-dihydro-1H-benzimidazol-2-one]"
20,168 to 169 °C,"COc1ccc(Cn2c(=O)n([C@H]3CC[C@H](O)CC3)c3ncc(C#N)cc32)cc1C [Example 2(101), 6-Cyano-3-(trans-4-hydroxycyclohexyl)-1-(4-methoxy-3-methylbenzyl)-2,3-dihydro-1H-imidazo[4,5-b]pyridin-2-one]"
21,275 to 276 °C,"COc1ccc(Cn2c(=O)n([C@H]3CC[C@H](O)CC3)c3ccc(C(=O)O)cc32)cc1Cl [Example 19(5), 5-Carboxy-3-(3-chloro-4-methoxybenzyl)-1-(trans-4-hydroxycyclohexyl)-2,3-dihydro-1H-benzimidazol-2-one]"
22,170 to 171.5 °C,"O=c1n(Cc2ccc(Cl)c(Cl)c2)c2cc(C(F)(F)F)cnc2n1[C@H]1CC[C@H](O)CC1 [Example 19(3), 1-(3,4-Dichlorobenzyl)-3-(trans-4-hydroxycyclohexyl)-6-trifluoromethyl-2,3-dihydro-1H-imidazo[4,5-b]pyridin-2-one]"
23,281 to 282 °C,"COc1ccc(Cn2c(=O)n(-c3ccc4[nH]ccc4c3)c3ncc(C#N)cc32)cc1Cl [Example 2(105), 1-(3-Chloro-4-methoxybenzyl)-3-(1H-indol-5-yl)-6-cyano-2,3-dihydro-1H-imidazo[4,5-b]pyridin-2-one]"
24,115 to 116 °C,"COc1c(Cl)cc(Cn2c(=O)n([C@H]3CC[C@H](O)CC3)c3ccc([N+](=O)[O-])cc32)cc1Cl [Example 2(26), 3-(3,5-Dichloro-4-methoxybenzyl)-1-(trans-4-hydroxycyclohexyl)-5-nitro-2,3-dihydro-1H-benzimidazol-2-one]"
25,128 to 130 °C,"COc1ccc(Cn2c(=O)n([C@H]3CC[C@H](O)CC3)c3ncc(C(F)(F)F)cc32)cc1OC [Example 18, 1-(3,4-dimethoxybenzyl)-3-(trans-4-hydroxycyclohexyl)-6-trifluoromethyl-2,3-dihydro-1H-imidazo[4,5-b]pyridin-2-one]"
26,209 to 210 °C,"COc1ccc(Cn2c(=O)n([C@H]3CC[C@H](O)CC3)c3ccc(C(C)=O)cc32)cc1Cl [Example 2(22), 5-Acetyl-3-(3-chloro-4-methoxybenzyl)-1-(trans-4-hydroxycyclohexyl)-2,3-dihydro-1H-benzimidazol-2-one]"
27,134 to 135 °C,"COc1ccc(Cn2c(=O)n([C@H]3CC[C@H](O)CC3)c3ncc(C(=O)NCc4cccnc4)cc32)cc1Cl [Example 21(2), 1-(3-Chloro-4-methoxybenzyl)-6-(3-picolylcarbamoyl)-3-(trans-4-hydroxycyclohexyl)-2,3-dihydro-1H-imidazo[4,5-b]pyridin-2-one]"

row,Structure (SMILES),melting point
1,"COc1ccc(Cn2c(=O)n([C@H]3CC[C@H](OC(C)=O)CC3)c3ncc(C(F)(F)F)cc32)cc1OC [Example 2(12), 3-(trans-4-Acetoxycyclohexyl)-1-(3,4-dimethoxybenzyl)-6-trifluoromethyl-2,3-dihydro-1H-imidazo[4,5-b]pyridin-2-one]",130 to 133 °C
2,"COc1ccc(Cn2c(=O)n([C@H]3CC[C@H](OC(C)=O)CC3)c3ncc(C(F)(F)F)cc32)cc1Cl [Example 2(15), 3-(trans-4-Acetoxycyclohexyl)-1-(3-chloro-4-methoxybenzyl)-6-trifluoromethyl-2,3-dihydro-1H-imidazo[4,5-b]pyridin-2-one]",165 to 166 °C
3,"COc1ccc(Cn2c(=O)n([C@H]3CC[C@H](NC(=O)OC(C)(C)C)CC3)c3ccc(C(F)(F)F)cc32)cc1Cl [Example 2(99), 1-[trans-4-(N-tert-Butoxycarbonylamino)cyclohexyl]-3-(3-chloro-4-methoxybenzyl)-5-trifluoromethyl-2,3-dihydro-1H-benzimidazol-2-one]",185.5 to 187 °C
4,"COc1ccc(Cn2c(=O)n([C@H]3CCN(C(=O)OC(C)(C)C)C3)c3ncc(C(F)(F)F)cc32)cc1Cl [Example 2(103), 3-((S)-1-tert-Butoxycarbonylpyrrolidin-3-yl)-1-(3-chloro-4-methoxybenzyl)-6-trifluoromethyl-2,3-dihydro-1H-imidazo[4,5-b]pyridin-2-one]",87 to 89 °C

# — patent US6582351B1, “Imidazopyridinone derivatives and their use as phosphodiesterase inhibitors” (Fujisawa Pharmaceutical Co., Ltd., priority 1999, dated 2003)
